One data set concerns Botrytis cinerea. Kind of data set: Example P: in vivo test on Botrytis cinerea (gray mould on bean/protective). To be noted: 48 h, bean, protective, 250 ppm active substance, assessed 2 days after inoculation, read-out: % Wirkungsgrad (activity level). In short, it runs like this: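 Protective test: young bean plants sprayed with the active substance preparation (emulsifier-based concentrate diluted in water) at the stated dosage. Once dry, each leaf received 2 agar pieces bearing Botrytis cinerea. Infection blotch size assessed 2 days after inoculation.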

The test system of another data set is Rhynchosporium secalis. The data set is described as follows: Example S: in vivo test on Rhynchosporium secalis (leaf scald in barley/protective). To be noted: 336 h, barley, protective, 1000 ppm active substance, assessed 14 days after inoculation, read-out: % Wirkungsgrad (activity level). The procedure: (§1) Solvent: 49 parts by weight N,N-dimethylacetamide Emulsifier: 1 part by weight alkylaryl polyglycol ethers For the preparation of a suitable active substance preparation, 1 part by weight of active substance is mixed with the stated quantities of solvent and emulsifier and the concentrate is diluted to the desired concentration with water. For the testing for protective activity, young plants are sprayed with the active substance preparation at the stated application dosage. After drying of the spray coating, the plants are sprayed with spores with a spore suspension of Rhynchosporium secalis. […] 14 days after the inoculation, the assessment takes place.

Another data set has as its system Venturia inaequalis. Kind of data set: Example O: in vivo test on Venturia inaequalis (apple scab/protective). To be noted: 240 h, protective, assessment 10 days after inoculation, read-out: % Wirkungsgrad. The method, boiled down:
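Protective test: active substance mixed with solvent and alkylaryl polyglycol ether emulsifier, diluted with water, and sprayed on young plants at the stated dosage before Venturia inaequalis inoculation. Scab assessed 10 days after inoculation.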

A further data set concerns Sphaerotheca fuliginea. The data set is described as follows: Example L: in vivo test on Sphaerotheca fuliginea (powdery mildew on cucumber/protective). To be noted: Podosphaera fuliginea, 168 h, cucumber, protective, assessment 7 days after inoculation, read-out: % Wirkungsgrad. The method, boiled down:
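Young cucumber plants sprayed at stated dosage with compound in DMF/alkylaryl polyglycol ether emulsifier diluted in water; inoculated with S. fuliginea spores one day later. Kept in greenhouse at 70% relative humidity, 23° C; protective activity assessed 7 days after inoculation.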

A further data set deals with Leptosphaeria nodorum. The data set is described as follows: Example Q: in vivo test on Leptosphaeria nodorum (glume blotch in wheat/protective). To be noted: Parastagonospora nodorum, 192 h, wheat, protective, assessment 8 days after inoculation, read-out: % Wirkungsgrad. The procedure:
as §1, with “Leptosphaeria nodorum.” for “Rhynchosporium secalis.”, “8” for “14”

A further data set has as its system Fusarium proliferatum. The data set is described as follows: Example I: production of fumonisin FB1 by Fusarium proliferatum (microtitre plates). In kind it is cell-based. To be noted: 120 h.
The subject of another data set is Alternaria solani. Kind of data set: Example M: in vivo test on Alternaria solani (leaf blotch disease/tomato/protective). To be noted: 168 h, tomato, protective, 500 ppm active substance, assessed 7 days after inoculation, read-out: % Wirkungsgrad (activity level). The method, boiled down: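 Protective test: young tomato plants sprayed with active substance (in DMF with alkylaryl polyglycol ether emulsifier, diluted in water) at the stated dosage, then inoculated with Alternaria solani. Disease assessed 7 days after inoculation.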

The test system of the next data set is Septoria tritici. Kind of data set: Example R: in vivo test on Septoria tritici (leaf blotch in wheat/protective). To be noted: Zymoseptoria tritici, 504 h, wheat, protective, 1000 ppm active substance, assessed 21 days after inoculation, read-out: % Wirkungsgrad (activity level). The procedure: as §1, with “with” for “with spores with”, “Septoria tritici.” for “Rhynchosporium secalis.”, “21” for “14”

The test system of data set [1] is Fusarium nivale (var. majus). Kind of data set: whole plant or invertebrate. Type of data set: in vivo. To be noted: Microdochium nivale, in Triticum aestivum, 120 h, read-out: % Wirkungsgrad (activity level).
Data set [2] deals with Fusarium graminearum. The data set is described as follows: whole plant or invertebrate. In kind it is in vivo. To be noted: in Hordeum vulgare, 120 h, read-out: % Wirkungsgrad (activity level).
The next data set relates to Plasmopara viticola. Kind of data set: Example N: in vivo test on Plasmopara viticola (downy mildew, vine/protective). To be noted: 144 h, vine, protective, assessment 6 days after inoculation, read-out: % Wirkungsgrad. The method, boiled down:
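Protective test: young vine plants were sprayed with active substance diluted in water from a solvent/alkylaryl polyglycol ether emulsifier concentrate at the stated dosage, then inoculated with P. viticola. Plants were moistened and kept 1 day in an incubation cabin, and assessed 6 days after inoculation.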

The subject of data set [3] is Fusarium graminearum. Kind of data set: microbe, parasite or virus in culture. In kind it is cell-based.
The subject of the next data set is Aspergillus parasiticus. Kind of data set: microbe, parasite or virus in culture. Type of data set: cell-based. To be noted: 168 h.
Where [4] appears, read: Fusarium proliferatum growth, OD 620, 5 days, read-out: % Inhibition des Pilzwachstums bei 50 μM.
[5] abbreviates: Fusarium proliferatum, 5 days at 20° C., HPLC-MS/MS, read-out: % Inhibition der FB1 produktion bei 50 μM.
The mark [6] stands for this setting: LogPA (logP of the stated pure compound or, in a mixture, of the main isomer, 1-substituted 3-aryl-1H-pyrazole).
Where [7] appears, read: 72 h, read-out: % Inhibition des Pilzwachstums bei 50 μM.
Where [8] appears, read: 168 h, read-out: % Inhibition der DON/AcDON produktion bei 50 μM.

Read-outs that look alike come from different tables or passages of the source.

What is called chromatographic logP is lipophilicity estimated from chromatographic retention. As to `CC(C)C(=O)Nc1cc(-c2cn(CC(F)F)nc2-c2ccc(F)cc2)ccn1` [Compound 218], the pest or weed control at 250 ppm in the data set on Botrytis cinerea was 98%. The pest or weed control at 1000 ppm in the data set with Rhynchosporium secalis was determined as 100%; in the data set on Leptosphaeria nodorum, 93%; in the data set with Septoria tritici, 100%; in data set [1], 92%; in the data set on Fusarium graminearum [2] it was 100%. For the same molecule, in the data set on Venturia inaequalis, the pest or weed control at 100 ppm stood at 95%. In addition, the pest or weed control at 500 ppm in the data set on Sphaerotheca fuliginea came to 100%; in the data set with Alternaria solani, 95%. Further, the inhibition at 50 µM in the data set on Fusarium proliferatum (setting [4]) amounted to 79%; with Fusarium proliferatum (setting [5]), 100%. Moreover, the chromatographic logP in the data set “physchem” (LogPA) was found to be 2.29.
In the case of `CC(C)Cn1cc(-c2ccnc(N)n2)c(-c2ccc(F)cc2)n1` [Compound 184], the pest or weed control at 250 ppm in the data set with Botrytis cinerea was 100%. The pest or weed control at 1000 ppm in the data set with Rhynchosporium secalis worked out at 71%; with Leptosphaeria nodorum it was 88%; with Septoria tritici it was 100%; in data set [1], 100%; in the data set on Fusarium graminearum [2], 100%. The pest or weed control at 100 ppm in the data set with Venturia inaequalis worked out at 92%. Moreover, the pest or weed control at 500 ppm with Sphaerotheca fuliginea and in the data set on Alternaria solani was 95% each time. Besides, the chromatographic logP in “physchem” (LogPA) came to 1.81.
Regarding `CC(C)n1cc(-c2ccnc(NC(=O)[C@H](C)O)c2)c(-c2ccc(F)cc2)n1` [Compound 192], the pest or weed control at 250 ppm with Botrytis cinerea turned out to be 100%. In addition, the pest or weed control at 1000 ppm is 71% in the data set with Rhynchosporium secalis; 86% with Leptosphaeria nodorum; 100% in the data set on Septoria tritici; 100% in data set [1]; 100% in the data set with Fusarium graminearum [2]. Also, the values for the pest or weed control at 100 ppm in the data set on Venturia inaequalis and in the data set with Plasmopara viticola were 95% and 94%, respectively. The pest or weed control at 500 ppm with Sphaerotheca fuliginea came out at 85%; in the data set with Alternaria solani it was 100%. Besides, the chromatographic logP in the data set “physchem” (LogPA) came to 2.14.
As to `CCC(=O)Nc1cc(-c2cn(C(C)CC)nc2-c2ccc(F)cc2)ccn1` (centres unmarked) [Compound 164], the pest or weed control at 1000 ppm came to 100% with Rhynchosporium secalis; 93% in the data set on Leptosphaeria nodorum; 100% in the data set on Septoria tritici; 100% in data set [1]; 100% with Fusarium graminearum [2]. Moreover, the pest or weed control at 100 ppm in the data set with Venturia inaequalis turned out to be 97%. Also, the values for the pest or weed control at 500 ppm with Sphaerotheca fuliginea and in the data set on Alternaria solani were 100% and 95%, respectively. In addition, the inhibition at 50 µM was found to be 97% in the data set with Fusarium proliferatum (setting [4]), 100% in the data set on Fusarium proliferatum (setting [5]), 100% in the data set on Fusarium graminearum [3] (setting [7]) and 99% in the data set on Fusarium graminearum [3] (setting [8]). Also, the chromatographic logP in “physchem” (setting [6]) amounted to 2.46.
As to `CCC(=O)Nc1cc(-c2cn(CC(F)F)nc2-c2ccc(F)cc2)ccn1` [Compound 215], the pest or weed control at 250 ppm in the data set with Botrytis cinerea was 98%. In addition, the pest or weed control at 1000 ppm with Rhynchosporium secalis stood at 90%; in the data set on Leptosphaeria nodorum it was 71%; with Septoria tritici, 94%; in data set [1], 100%; in the data set with Fusarium graminearum [2] it was 100%. Besides, the pest or weed control at 100 ppm in the data set with Venturia inaequalis came to 96%. In addition, the values for the pest or weed control at 500 ppm with Sphaerotheca fuliginea and in the data set on Alternaria solani were 100% and 94%, respectively. Moreover, the figures for the inhibition at 50 µM in the data set on Fusarium proliferatum (setting [4]) and in the data set with Fusarium proliferatum (setting [5]) were 94% and 100%, respectively. Also, in the data set “physchem” (LogPA), the chromatographic logP stood at 1.99.
Take `CC(C)Cn1cc(-c2ccnc(NC(=O)C(C)C)c2)c(-c2ccc(F)cc2)n1` [Compound 87]: the pest or weed control at 250 ppm in the data set with Botrytis cinerea was 100%. Further, the pest or weed control at 1000 ppm in the data set with Rhynchosporium secalis worked out at 88%; in the data set on Leptosphaeria nodorum it was 88%; in the data set on Septoria tritici it was 100%; in data set [1], 92%; with Fusarium graminearum [2] it was 100%. In addition, the pest or weed control at 100 ppm in the data set on Venturia inaequalis is 95%. Also, the pest or weed control at 500 ppm with Sphaerotheca fuliginea was 100%; with Alternaria solani it was 95%. For the same molecule, the inhibition at 50 µM came to 83% in the data set on Fusarium proliferatum (setting [4]); 100% in the data set on Fusarium proliferatum (setting [5]); 100% in the data set on Aspergillus parasiticus (50 μM, 7 days at 20° C., read-out: Inhibition der Aflatoxin produktion bei 50 μM); 97% in the data set on Aspergillus parasiticus (read-out: % Inhibition des Pilzwachstums bei 50 μM); 97% with Fusarium graminearum [3] (setting [7]); 100% in the data set on Fusarium graminearum [3] (setting [8]). Moreover, the chromatographic logP in “physchem” (setting [6]) came out at 2.89.
Take `CCC(=O)Nc1cc(-c2cn(CC3CC3)nc2-c2ccc(F)cc2)ccn1` [Compound 214]: in the data set with Botrytis cinerea, the pest or weed control at 250 ppm came out at 100%. Moreover, the pest or weed control at 1000 ppm in the data set with Rhynchosporium secalis is 100%; in the data set on Leptosphaeria nodorum, 71%; in the data set on Septoria tritici it was 100%; in [1], 100%; in the data set on Fusarium graminearum [2], 100%. Also, the pest or weed control at 100 ppm in the data set with Venturia inaequalis and in the data set on Plasmopara viticola was 88% each time. Besides, the pest or weed control at 500 ppm in the data set with Sphaerotheca fuliginea came out at 100%; with Alternaria solani, 95%. The inhibition at 50 µM was 96% in the data set on Fusarium proliferatum (setting [4]), 100% with Fusarium proliferatum (setting [5]), 100% in the data set on Fusarium graminearum [3] (setting [7]) and 93% in the data set with Fusarium graminearum [3] (setting [8]). In the data set “physchem” (LogPA), this molecule gave a chromatographic logP of 2.2.
In the case of `CC(C)C(=O)Nc1cc(-c2cn(CC3CC3)nc2-c2ccc(F)cc2)ccn1` [Compound 225], the pest or weed control at 250 ppm in the data set with Botrytis cinerea turned out to be 96%. For the same molecule, the pest or weed control at 1000 ppm in the data set with Rhynchosporium secalis is 90%; with Leptosphaeria nodorum it was 86%; in the data set on Septoria tritici it was 100%; in data set [1], 100%; with Fusarium graminearum [2], 100%. In addition, the pest or weed control at 100 ppm in the data set with Venturia inaequalis was 96%; with Plasmopara viticola, 90%. In addition, the pest or weed control at 500 ppm came to 100% in the data set with Sphaerotheca fuliginea and 95% in the data set on Alternaria solani. Besides, the inhibition at 50 µM amounted to 93% with Fusarium proliferatum (setting [4]), 100% in the data set on Fusarium proliferatum (setting [5]), 92% in the data set on Fusarium graminearum [3] (setting [7]) and 89% in the data set with Fusarium graminearum [3] (setting [8]). For the same molecule, the chromatographic logP in “physchem” (LogPA) is 2.54.
